Measured values published in US20220046923A1, “HERBICIDAL CINNOLINIUM COMPOUNDS” (SYNGENTA CROP PROTECTION AG, priority 2018, published 2022).
Structures can show the parent of a compound that is named as a salt.

Key:
Assay in all cases: Post-emergence efficacy, glasshouse spray test
Assay type in all cases: in vivo
[1] = test system: Digitaria sanguinalis (DIGSA); settings: evaluated after 13 days; for pest or weed control at 500 g/ha / pest or weed control at 1000 g/ha: Digitaria sanguinalis, post-emergence, 312 h, read-out: Control of weed species DIGSA after post-emergence application (100=total damage to plant; 0=no damage to plant); for pest or weed control at 500 g/ha: application rate 500 g/Ha
Outline: (§1)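 Compound formulated in acetone/IF50 and diluted into 0.25% or 1% Empicol ESC70 with 1% ammonium sulphate was sprayed on glasshouse seedlings 14 days after sowing. Growth continued at 24/16 °C, 14 h light, 65% humidity with twice-daily watering; damage (0–100) scored on day 13.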

[2] = test system: Amaranthus palmeri (AMAPA); settings: evaluated after 13 days; for pest or weed control at 500 g/ha / pest or weed control at 1000 g/ha: Amaranthus palmeri, post-emergence, 312 h, read-out: Control of weed species AMAPA after post-emergence application (100=total damage to plant; 0=no damage to plant); for pest or weed control at 500 g/ha: application rate 500 g/Ha
Outline: as §1

[3] = test system: Setaria faberi (SETFA); settings: evaluated after 13 days; for pest or weed control at 500 g/ha / pest or weed control at 1000 g/ha: Setaria faberi, post-emergence, 312 h, read-out: Control of weed species SETFA after post-emergence application (100=total damage to plant; 0=no damage to plant); for pest or weed control at 500 g/ha: application rate 500 g/Ha
Outline: as §1

[4] = test system: Chenopodium album (CHEAL); settings: evaluated after 13 days; for pest or weed control at 500 g/ha / pest or weed control at 1000 g/ha: Chenopodium album, post-emergence, 312 h, read-out: Control of weed species CHEAL after post-emergence application (100=total damage to plant; 0=no damage to plant); for pest or weed control at 500 g/ha: application rate 500 g/Ha
Outline: as §1

[5] = test system: Euphorbia heterophylla (EPHHL); settings: evaluated after 13 days; for pest or weed control at 500 g/ha / pest or weed control at 1000 g/ha: Euphorbia heterophylla, post-emergence, 312 h, read-out: Control of weed species EPHHL after post-emergence application (100=total damage to plant; 0=no damage to plant); for pest or weed control at 500 g/ha: application rate 500 g/Ha
Outline: as §1

[6] = test system: Ipomoea hederacea (IPOHE); settings: evaluated after 13 days; for pest or weed control at 500 g/ha / pest or weed control at 1000 g/ha: Ipomoea hederacea, post-emergence, 312 h, read-out: Control of weed species IPOHE after post-emergence application (100=total damage to plant; 0=no damage to plant); for pest or weed control at 500 g/ha: application rate 500 g/Ha
Outline: as §1

[7] = test system: Echinochloa crus-galli (ECHCG); settings: evaluated after 13 days; for pest or weed control at 500 g/ha / pest or weed control at 1000 g/ha: Echinochloa crus-galli, post-emergence, 312 h, read-out: Control of weed species ECHCG after post-emergence application (100=total damage to plant; 0=no damage to plant); for pest or weed control at 500 g/ha: application rate 500 g/Ha
Outline: as §1

[8] = test system: Eleusine indica (ELEIN); settings: evaluated after 13 days; for pest or weed control at 500 g/ha / pest or weed control at 1000 g/ha: Eleusine indica, post-emergence, 312 h, read-out: Control of weed species ELEIN after post-emergence application (100=total damage to plant; 0=no damage to plant); for pest or weed control at 500 g/ha: application rate 500 g/Ha
Outline: as §1

[9] = test system: Lolium perenne (LOLPE); settings: evaluated after 13 days; for pest or weed control at 500 g/ha / pest or weed control at 1000 g/ha: Lolium perenne, post-emergence, 312 h, read-out: Control of weed species LOLPE after post-emergence application (100=total damage to plant; 0=no damage to plant); for pest or weed control at 500 g/ha: application rate 500 g/Ha
Outline: as §1

Structure (SMILES)	pest or weed control at 1000 g/ha ([1]; application rate 1000 g/Ha) [%]	pest or weed control at 1000 g/ha ([2]; application rate 1000 g/Ha) [%]	pest or weed control at 1000 g/ha ([3]; application rate 1000 g/Ha) [%]	pest or weed control at 1000 g/ha ([4]; application rate 1000 g/Ha) [%]	pest or weed control at 1000 g/ha ([5]; application rate 1000 g/Ha) [%]	pest or weed control at 1000 g/ha ([6]; application rate 1000 g/Ha) [%]	pest or weed control at 1000 g/ha ([7]; application rate 1000 g/Ha) [%]	pest or weed control at 1000 g/ha ([8]; application rate 1000 g/Ha) [%]	pest or weed control at 1000 g/ha ([9]; application rate 1000 g/Ha) [%]	also measured
Cc1cccc2n[n+](CCS(=O)(=O)[O-])ccc12 [Compound A97]										pest or weed control at 500 g/ha [1]: 50%; pest or weed control at 500 g/ha [2]: 100%; pest or weed control at 500 g/ha [3]: 60%; pest or weed control at 500 g/ha [4]: 90%; pest or weed control at 500 g/ha [5]: 80%; pest or weed control at 500 g/ha [6]: 10%; pest or weed control at 500 g/ha [7]: 30%; pest or weed control at 500 g/ha [8]: 70%; pest or weed control at 500 g/ha [9]: 10%
Cc1c[n+](CCC(=O)O)nc2ccccc12 [Compound A64]	50	70	30	70	70	20	40	50	10	
Cc1ccc2cc[n+](CCS(=O)(=O)[O-])nc2c1 [Compound A87]	40	100	50	100	100	70	40	80	40	
CC(CC[n+]1ccc2ccccc2n1)S(=O)(=O)[O-] (stereo not drawn) [Compound A43, 4-cinnolin-2-ium-2-ylbutane-2-sulfonate]	80	100	70	100	100	80	70	100	40	
OCCC[n+]1ccc2ccccc2n1 [Compound A121]	0	30	30	60	30	20	10	0	10	
COC(=O)C[n+]1ccc2ccccc2n1 [Compound A1, methyl 2-cinnolin-2-ium-2-ylacetate bromide]	70	100	60	60	90	50	70	100	40	
O=C(O)CCC[n+]1ccc2ccccc2n1 [Compound A17]										Control of weed species DIGSA after post-emergence application (100=total damage to plant; 0=no damage to plant) ([1]; application rate 1000 g/Ha): 40; Control of weed species AMAPA after post-emergence application (100=total damage to plant; 0=no damage to plant) ([2]; application rate 1000 g/Ha): 70; Control of weed species SETFA after post-emergence application (100=total damage to plant; 0=no damage to plant) ([3]; application rate 1000 g/Ha): 40; Control of weed species CHEAL after post-emergence application (100=total damage to plant; 0=no damage to plant) ([4]; application rate 1000 g/Ha): 60; Control of weed species EPHHL after post-emergence application (100=total damage to plant; 0=no damage to plant) ([5]; application rate 1000 g/Ha): 40; Control of weed species IPOHE after post-emergence application (100=total damage to plant; 0=no damage to plant) ([6]; application rate 1000 g/Ha): 30; Control of weed species ECHCG after post-emergence application (100=total damage to plant; 0=no damage to plant) ([7]; application rate 1000 g/Ha): 30; Control of weed species ELEIN after post-emergence application (100=total damage to plant; 0=no damage to plant) ([8]; application rate 1000 g/Ha): 60; Control of weed species LOLPE after post-emergence application (100=total damage to plant; 0=no damage to plant) ([9]; application rate 1000 g/Ha): 40
Cc1cc(C)c2n[n+](CC(=O)[O-])cc(C)c2c1 [Compound A4]	10	40	0	10	40	30	10	20	10	
CN(C)S(=O)(=O)[N-]C(=O)C[n+]1ccc2ccccc2n1 [Compound A21, (2-cinnolin-2-ium-2-ylacetyl)-(dimethylsulfamoyl)azanide]	10	10	0	50	70	20	30	0	0	
CNC(=O)c1c[n+](CCS(=O)(=O)[O-])nc2ccccc12 [Compound A13]										pest or weed control at 500 g/ha [1]: 50%; pest or weed control at 500 g/ha [2]: 40%; pest or weed control at 500 g/ha [3]: 60%; pest or weed control at 500 g/ha [4]: 50%; pest or weed control at 500 g/ha [5]: 20%; pest or weed control at 500 g/ha [6]: 20%; pest or weed control at 500 g/ha [7]: 50%; pest or weed control at 500 g/ha [8]: 30%; pest or weed control at 500 g/ha [9]: 20%
C[C@H](CNS(=O)(=O)[O-])[n+]1ccc2ccccc2n1 [Compound A49]	70	100	60	90	90	80	60	90	50	
N#Cc1cccc2cc[n+](CCS(=O)(=O)[O-])nc12 [Compound A110, 2-(8-cyanocinnolin-2-ium-2-yl)ethanesulfonate]										pest or weed control at 500 g/ha [1]: 20%; pest or weed control at 500 g/ha [2]: 70%; pest or weed control at 500 g/ha [3]: 20%; pest or weed control at 500 g/ha [4]: 30%; pest or weed control at 500 g/ha [5]: 60%; pest or weed control at 500 g/ha [6]: 40%; pest or weed control at 500 g/ha [7]: 20%; pest or weed control at 500 g/ha [8]: 20%; pest or weed control at 500 g/ha [9]: 0%
CCOP(=O)(O)CC[n+]1ccc2ccccc2n1 [Compound A103]										pest or weed control at 500 g/ha [1]: 60%; pest or weed control at 500 g/ha [2]: 20%; pest or weed control at 500 g/ha [3]: 60%; pest or weed control at 500 g/ha [4]: 0%; pest or weed control at 500 g/ha [5]: 40%; pest or weed control at 500 g/ha [6]: 20%; pest or weed control at 500 g/ha [7]: 30%; pest or weed control at 500 g/ha [8]: 30%; pest or weed control at 500 g/ha [9]: 20%
COC(=O)C[n+]1ccc2cccc(C)c2n1 [Compound A58]	0	0	0	30	20	10	10	10	0	
CC#Cc1c[n+](CCOS(=O)(=O)[O-])nc2ccccc12 [Compound A54, 2-(4-prop-1-ynylcinnolin-2-ium-2-yl)ethyl sulfate]	30	30	20	40	30	10	10	30	10	
